Our source for the GI50 and Ratio values is ChEMBL document CHEMBL1133824, “Amino acid phosphoramidate nucleosides: potential ADEPT/GDEPT substrates” (2001).

Format in all cases: functional
The subject of test [1] is CCRF-CEM. Nature of the test: In vitro concentration required for 50% inhibition of growth of human leukemia cell line CCRF-CEM with hPAP (0.2 unit/mL).
The nature of test [2]: Ratio of GI50 without hPAP/ GI50 with hPAP.
In test [3] the test system is CCRF-CEM. Nature of the test: In vitro concentration required for 50% inhibition of growth of human leukemia cell line CCRF-CEM without hPAP (0.2 unit/mL).

For `COC(=O)[C@H](Cc1c[nH]c2ccccc12)NP(=O)(O)OCC1OC(n2cc(F)c(=O)[nH]c2=O)CC1O` (some centres not stated), the GI50 with CCRF-CEM [1] was 0.9 nM; with CCRF-CEM [3], 4830 nM. Besides, the Ratio in test [2] was determined as 5370.

As to `COC(=O)[C@H](Cc1ccccc1)NP(=O)(O)OCC1OC(n2cc(F)c(=O)[nH]c2=O)CC1O` (some centres not stated), the GI50 with CCRF-CEM [1] was determined as 0.8 nM; in the test on CCRF-CEM [3], 463 nM. The Ratio in test [2] was found to be 578.

Turning to `Nc1ccn([C@@H]2O[C@H](CO)[C@@H](O)[C@@H]2O)c(=O)n1` [CYTARABINE], the GI50 in the test on CCRF-CEM [1] was 99.8 nM; in the test with CCRF-CEM [3], 90 nM. Also, the Ratio in test [2] came out at 0.902.

As for `O=c1[nH]c(=O)n([C@H]2C[C@H](O)[C@@H](CO)O2)cc1F` [FLOXURIDINE], the GI50 was 0.6 nM in the test with CCRF-CEM [1] and 2 nM in the test with CCRF-CEM [3]. Moreover, the Ratio in test [2] came to 3.33.

By GI50 is commonly meant the concentration that inhibits growth by half. Read a low GI50 as greater sensitivity of the cells.
